Eleven molecules from article PMC7897990, “TriTOX: A novel Trichomonas vaginalis assay platform for high-throughput screening of compound libraries” (International Journal for Parasitology: Drugs and Drug …, 2021) can be followed below.

The structures appear in SMILES notation. Where two headings read alike, the source gives them in different places.

For data set [1], the system named is nontumorigenic neonatal foreskin fibroblast (NFF) cell line.
For data set [2], the system named is Trichomonas vaginalis G3 trophozoites. As to conditions: for T.vaginalis_Absorbance_Rep1: replicate 1, raw absorbance; for T.vaginalis_Absorbance_Rep2: replicate 2, raw absorbance.
The mark [3] stands for this setting: HTS replicate 1, parasite screen 1 µg/mL.
Setting [4] is: HTS replicate 2, parasite screen 1 µg/mL.
[5] abbreviates: NFF_NS1 screen at 5 µg/mL, NFF cells.
[6] abbreviates: parasite screen at 1 µg/mL, replicate 1.
[7] abbreviates: parasite screen at 1 µg/mL, replicate 2.
[8] abbreviates: NFF_NS1 screen 5 µg/mL, single concentration.
[9] abbreviates: HTS single concentration, parasite screen 1 µg/mL, replicate 1.
Where [10] appears, read: HTS single concentration, parasite screen 1 µg/mL, replicate 2.
Where [11] appears, read: HTS, parasite screen at 1 µg/mL, replicate 1.
Where [12] appears, read: HTS, parasite screen at 1 µg/mL.
[13] abbreviates: HTS, parasite screen at 1 µg/mL, replicate 2.

For `CC1(C)OC2CC(=O)OCC23C1CC(=O)C1(C)C3CCC2(C)C(c3ccoc3)OC(=O)C3OC321` (stereo not shown) [BIA-L1755], in data set [1] (NFF cells, screen at 5 µg/mL), the NFF_Activity result was “I (otherwise these were reported as inactive (I))”. In data set [2] (replicate 1, parasite screen at 1 µg/mL), this molecule displayed a T.vaginalis_%inb_Rep1 of 11.46%. In data set [2] (replicate 2, parasite screen at 1 µg/mL), this molecule showed a T.vaginalis_%inb_Rep2 of 13.09%.

For the molecule `CCOC(=O)[C@H](Cc1ccccc1)NC(=O)c1cc(Cl)c2c(c1O)C(=O)O[C@H](C)C2` [Ochratoxin C], the NFF_Activity result in data set [1] (NFF fibroblasts, single concentration 5 µg/mL) is “I (otherwise these were reported as inactive (I))”. For the same molecule, in data set [2] (setting [3]), the T.vaginalis_%inb_Rep1 worked out at 15.37%. In addition, the T.vaginalis_%inb_Rep2 in data set [2] (setting [4]) came to 4.81%.

For `CC1=C[C@H]2O[C@@H]3[C@H](O)[C@@H](O)[C@](C)([C@@]2(CO)C[C@@H]1O)[C@]31CO1` [BIA-T1932], the NFF_Activity entry in data set [1] (setting [5]) was “I (otherwise these were reported as inactive (I))”. In data set [2] (setting [6]), the T.vaginalis_%inb_Rep1 came to 10.49%. The T.vaginalis_%inb_Rep2 in data set [2] (setting [7]) came out at 13.71%.

Take `CCCCCCCCCCCCCCCC(=O)C1=C(O)C(CO)OC1=O` (stereo not shown) [BIA-R1082]: the NFF_Activity entry in data set [1] (setting [5]) was “I (otherwise these were reported as inactive (I))”. In data set [2] (setting [6]), the T.vaginalis_%inb_Rep1 is reported as 10.55%. The molecule further gave a T.vaginalis_%inb_Rep2 in data set [2] (setting [7]) of 12.25%.

As to `CCCCCC[C@H]1C(=O)O[C@H](C)[C@H](NC(=O)c2cccc(NC=O)c2O)C(=O)O[C@@H](C)[C@@H]1OC(=O)CC(C)C` [BIA-A1442], the NFF_Activity entry in data set [1] (setting [8]) was “I (otherwise these were reported as inactive (I))”. The same molecule had a T.vaginalis_%inb_Rep1 in data set [2] (setting [9]) of 17.88%. This molecule showed a T.vaginalis_%inb_Rep2 in data set [2] (setting [10]) of 12.87%.

`CCC(=O)CCCCCC1NC(=O)C2CCCCN2C(=O)C(C(C)CC)NC(=O)C(Cc2cn(OC)c3ccccc23)NC1=O` (stereo not shown) [BIA-A1006]: the NFF_Activity result in data set [1] (setting [8]) is “I (otherwise these were reported as inactive (I))”. Further, in data set [2] (setting [9]), the T.vaginalis_%inb_Rep1 is recorded as 13.25%. This molecule also gave a T.vaginalis_%inb_Rep2 in data set [2] (setting [10]) of 17.28%.

Turning to `CC(C)C[C@H](NC(=O)[C@@H](O)[C@H](N)Cc1ccccc1)C(=O)O` [BIA-B1278], in data set [1] (setting [8]), the NFF_Activity entry was “I (otherwise these were reported as inactive (I))”. In addition, the T.vaginalis_%inb_Rep1 in data set [2] (setting [9]) stood at 14.49%. This molecule came in with a T.vaginalis_%inb_Rep2 in data set [2] (setting [10]) of 15.84%.

Regarding `COc1c(OC)c(-c2c[nH]c3ccccc23)c(OC)c(OC)c1-c1c[nH]c2ccccc12` [BIA-A1630], the NFF_Activity result in data set [1] (setting [8]) was “I (otherwise these were reported as inactive (I))”. The molecule also came in with a T.vaginalis_%inb_Rep1 in data set [2] (setting [9]) of 13.41%. The same molecule showed a T.vaginalis_%inb_Rep2 in data set [2] (setting [10]) of 14.03%.

Consider `CCCC[C@@H](C)[C@@H](OC(=O)C[C@@H](CC(=O)O)C(=O)O)[C@H](C[C@@H](C)CCCCCC[C@@H](O)C[C@H](O)[C@H](C)N)OC(=O)C[C@@H](CC(=O)O)C(=O)O` [Fumonisin B2], for which, in data set [1] (NFF_NS1 screen at 5 µg/mL), the NFF_Activity result is “I (otherwise these were reported as inactive (I))”. Also, the T.vaginalis_%inb_Rep1 in data set [2] (setting [11]) came to 14.71%. In data set [2] (setting [12]), this molecule gave a T.vaginalis_Absorbance_Rep1 of 0.992 and a T.vaginalis_Absorbance_Rep2 of 0.799. In data set [2] (setting [13]), this molecule showed a T.vaginalis_%inb_Rep2 of 10.52%.

With `CC[C@H]1OC(=O)[C@H](C)[C@@H](O[C@H]2C[C@@](C)(OC)[C@@H](O)[C@H](C)O2)[C@H](C)[C@@H](O[C@@H]2O[C@H](C)C[C@H]([N+](C)(C)[O-])[C@H]2O)[C@](C)(O)C[C@@H](C)C(=O)[C@H](C)[C@@H](O)[C@]1(C)O` [Erythromycin A N-oxide], the NFF_Activity result in data set [1] (NFF_NS1 screen at 5 µg/mL) was “I (otherwise these were reported as inactive (I))”. For the same molecule, in data set [2] (setting [11]), the T.vaginalis_%inb_Rep1 came out at 6.03%. In data set [2] (setting [12]), this molecule gave a T.vaginalis_Absorbance_Rep1 of 0.821 and a T.vaginalis_Absorbance_Rep2 of 0.756. Further, the T.vaginalis_%inb_Rep2 in data set [2] (setting [13]) worked out at 9.83%.

In the case of `CC[C@H]1/C=C/C=C/C[C@@H](C)[C@H](O)[C@@](C)(O)C(=O)[C@@H](C)[C@H](O)[C@@H](C)C(=O)[C@@H](C)[C@H](O)[C@@H](C)/C=C/C(=O)O[C@H]2C[C@@]3(CC[C@H](C)[C@H](C[C@@H](C)O)O3)O[C@@H](CC1)[C@H]2C` [Oligomycin D], in data set [1], the NFF_Activity result was “I (key: active (A) compounds having >25% inhibitory activity; otherwise these were reported as inactive (I))”. Moreover, in data set [2] (setting [3]), the T.vaginalis_%inb_Rep1 is recorded as 14.35%. For the same molecule, in data set [2] (setting [4]), the T.vaginalis_%inb_Rep2 is 12.89%.
